According to patent publication US7566787B2, “Small molecule cyclin D1 ablative agents” (The Ohio State University, priority 2004, dated 2009):
Where two headings read alike, the source gives them in different places.

Key:
[1] = tested on: cyclin D1; experiment: Western blot analysis of cyclin D1 expression in MCF-7 cells; assay type: cell-based, human; settings: for concentration at which cyclin D1 levels are reduced: FIG. 8B; for minimum concentration required for the complete ablation of cyclin D1: 24 h, 5% FBS
Procedure: (§1) Western Blot Analysis. MCF-7 or MDA-MB-231 cells were seeded in 10% FBS-containing DMEM-F-12 for 24 h and treated with various agents as indicated. After individual treatments for 24 h, both the incubation medium and adherent cells in T-25 or T-75 flasks were scraped and collected by centrifugation at 2,000×g for 10 min. The pellets were recovered, placed on ice, and triturated with 20 to 50 μl of a chilled lysis buffer (M-PER® Mammalian Protein Extraction Reagent, Pierce, Rockford, Ill.) to which was added 1% protease inhibitor cocktail (set III, EMD Biosciences, Inc. San Diego, Calif.). After a 30 min-incubation on ice, the mixture was centrifuge at 16,100×g for 3 min. Two μl of the suspension was taken for protein analysis using the Bradford assay kit (Bio-Rad, Hercules, Calif.). To the remaining solution was added the same volume of 2× SDS-PAGE sample loading buffer (100 mM Tris-HCl, pH 6.8, 4% SDS, 5% β-mercaptoethanol 20% glycerol, and 0.1% bromophenol blue). The mixture was boiled for 10 min. Equal amounts of proteins were loaded onto 10% SDS-PAGE gels. After electrophoresis, protein bands were transferred to nitrocellulose membranes in a semi-dry transfer cell. The transblotted membrane was blocking with TBST [Tris-buffered saline (TBS) containing 0.1% Tween 20] containing 5% nonfat milk for 90 min, and the membrane was incubated with the appropriate primary antibody in TBST-5% nonfat milk at 4° C. overnight. After washing three times with TBST for a total of 45 min, the transblotted membrane was incubated with goat anti-rabbit or anti-mouse IgG-horseradish peroxidase conjugates (diluted 1:1000) for 1 h at room temperature and washed four times with TBST for a total of 1 h. The immunoblots were visualized by enhanced chemiluminescence.

[2] = tested on: MCF-7 cells; experiment: MTT cell viability assay; assay type: cell-based; settings: Homo sapiens
Procedure: Cell viability analysis. The effect of individual test agents on cell viability was assessed by using the MTT [3-(4,5-dimethylthiazol-2-yl)-2,5-diphenyl-2H-tetrazolium bromide] assay in six replicates. Cells were seeded and incubated in 96-well, flat-bottomed plates in DMEM-F12 media with 10% FBS for 24 h, and were exposed to various concentrations of test agents dissolved in DMSO (final DMSO concentration, 0.1%) in 5% FBS-supplemented DMEM-F12 medium. Controls received DMSO vehicle at a concentration equal to that of drug-treated cells. The medium was removed, replaced by 200 μl of 0.5 mg/ml of MTT in 10% FBS-containing RPMI-1640 medium, and cells were incubated in the CO2 incubator at 37° C. for 2 h. Supernatants were removed from the wells, and the reduced MTT dye was solubilized in 200 μl/well DMSO. Absorbance at 570 nm was determined on a plate reader.

[3] = target: T1, PPARγ (Homo sapiens, UniProt P37231); experiment: Analysis of PPARγ activation (PPARγ transcription factor ELISA, MCF-7 nuclear extracts); assay type: cell-based; settings: 10 μM, 48 h, MCF-7 cells
T1 construct: endogenous in cells; host or cells: MCF-7 (nuclear extracts)
T1 sequence (P37231 1-505): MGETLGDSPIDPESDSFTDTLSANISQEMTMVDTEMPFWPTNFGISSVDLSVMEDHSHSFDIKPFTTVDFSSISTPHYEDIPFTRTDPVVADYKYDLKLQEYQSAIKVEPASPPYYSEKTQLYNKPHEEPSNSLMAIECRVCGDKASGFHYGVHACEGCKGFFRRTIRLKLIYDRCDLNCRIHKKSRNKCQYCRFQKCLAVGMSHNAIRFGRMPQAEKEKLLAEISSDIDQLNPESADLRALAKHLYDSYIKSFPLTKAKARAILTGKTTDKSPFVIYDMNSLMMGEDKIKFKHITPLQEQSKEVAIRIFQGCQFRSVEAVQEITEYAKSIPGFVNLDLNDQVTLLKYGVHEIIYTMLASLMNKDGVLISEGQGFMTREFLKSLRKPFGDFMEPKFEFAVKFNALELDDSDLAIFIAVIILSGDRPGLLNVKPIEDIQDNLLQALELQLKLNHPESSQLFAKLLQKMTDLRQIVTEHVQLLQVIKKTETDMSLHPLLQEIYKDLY
Procedure: Analysis of PPARγ activation. The analysis was carried out by using a PPARγ transcription factor ELISA kit (Active Motif, Carlsbad, Calif.), in which an oligonucleotide containing the peroxisome proliferator response element (PPRE) was immobilized onto a 96-well plate. PPARs contained in nuclear extracts bind specifically to this oligonucleotide and are detected through an antibody directed against PPARγ. In brief, MCF-7 cells were cultured in RPMI 1640 medium supplemented with 10% FBS, and treated with DMSO vehicle or individual test agents, 10 μM each, for 48 h. Cells were collected, and nuclear extracts were prepared with a Nuclear Extract kit (Active Motif, Carlsbad, Calif.). Nuclear extracts of the same protein concentration from individual treatments were subject to the PPARγ transcription factor ELISA according to the manufacturer's instruction.

[4] = tested on: ERα; experiment: Western blot analysis of ERα expression in MCF-7 cells; assay type: cell-based, human; settings: 24 h
Procedure: as §1, with “The transblotted membrane was blocking with TBST [Tris-buffered saline (TBS) containing 0.1% Tween 20] containing 5% nonfat milk for 90 min, and the membrane was incubated with the appropriate primary antibody in TBST-5% nonfat milk at 4° C. overnight. After washing three times with TBST for a total of 45 min, the transblotted membrane was incubated with goat anti-rabbit or anti-mouse IgG-horseradish peroxidase conjugates (diluted 1:1000) for 1 h at room temperature and washed four times with TBST for a total of 1 h. The immunoblots were visualized by enhanced chemiluminescence.” left out

[5] = tested on: cyclins D2, D3, A, B, and E, and cyclin-dependent kinases (CDKs) 2 and 4; experiment: Western blot of other cyclins and CDKs in MCF-7 cells; assay type: cell-based, human; settings: different doses, 24 h
Procedure: as §1, with “The transblotted membrane was blocking with TBST [Tris-buffered saline (TBS) containing 0.1% Tween 20] containing 5% nonfat milk for 90 min, and the membrane was incubated with the appropriate primary antibody in TBST-5% nonfat milk at 4° C. overnight. After washing three times with TBST for a total of 45 min, the transblotted membrane was incubated with goat anti-rabbit or anti-mouse IgG-horseradish peroxidase conjugates (diluted 1:1000) for 1 h at room temperature and washed four times with TBST for a total of 1 h. The immunoblots were visualized by enhanced chemiluminescence.” left out

[6] = tested on: ubiquitinated cyclin D1; experiment: Coimmunoprecipitation/Western blot of cyclin D1 ubiquitination in MCF-7 cells; assay type: cell-based, human; settings: 30 μM TG or 20 μM Δ2-TG, 20 h
Procedure: Coimmunoprecipitation/Western Blot. MCF-7 cells were cultured in 10% FBS-containing DMEM-F-12 in 75-mm plates for 24 h. Cell were treated with DMSO vehicle, 30 μM TG, or 20 μM Δ2-TG in 5% FBS-containing DMEM-F12 medium for another 20 hours. Cells were rinsed with PBS at room temperature, scraped off the flask, transferred into centrifuge tubes, and centrifuged at 2,000×g for 10 min to pellet the cells. […] These cell lysates were treated with 100 μl of protein A-agarose bead slurry, followed by brief centrifugation, to remove nonspecific binding proteins. Equal amounts of proteins from these lysates, as determined by the Bradford assay, were mixed with anti-cyclin D1 in an orbital shaker at 23° C. for 2 h, followed by 100 μl of protein A-agarose bead slurry at 4° C. for 12 h. The immunocomplex was collected by brief centrifugation, washed 4 times with 800 μl of ice-cold RIPA buffer, and suspended in 50 μl of the aforementioned 2× SDS sample loading buffer. The suspension was boiled for 10 min, cooled, and briefly centrifuged to remove the beads. Western blot analysis was performed with anti-cyclin D1 or anti-ubiquitin as described above.

[7] = tested on: GSK-3β; experiment: Western blot of GSK-3β phosphorylation in MCF-7 cells; assay type: cell-based, human; settings: different doses
Procedure: as §1, with “The transblotted membrane was blocking with TBST [Tris-buffered saline (TBS) containing 0.1% Tween 20] containing 5% nonfat milk for 90 min, and the membrane was incubated with the appropriate primary antibody in TBST-5% nonfat milk at 4° C. overnight. After washing three times with TBST for a total of 45 min, the transblotted membrane was incubated with goat anti-rabbit or anti-mouse IgG-horseradish peroxidase conjugates (diluted 1:1000) for 1 h at room temperature and washed four times with TBST for a total of 1 h. The immunoblots were visualized by enhanced chemiluminescence.” left out

[8] = tested on: cyclin D1 gene mRNA; experiment: RT-PCR analysis of mRNA transcripts of cyclin D1 gene in MCF-7 cells; assay type: cell-based, human; settings: 24 h exposure, 40 μM TG, 30 μM Δ2-TG
Procedure: Reverse transcriptase (RT-) PCR analysis of mRNA transcripts of cyclin D1 gene. MCF7 cells were subject to total RNA isolation by using RNeasy mini kit (Qiagen, Valencia, Calif.). RNA concentrations and quality were assessed spectrophotometrically by measuring absorption at 260 nm. Aliquots of 20 μg of total RNA from each sample was reverse transcribed to cDNA using Omniscript RT Kit (Qiagen) according to manufacturer's instructions. The primers used were as follows: cyclin D1, forward, 5′-[…]-3′, reverse, 5′-[…]-3′; β-actin, forward, 5′-[…]-3′, reverse, 5′-[…]-3′. The reaction conditions were as follows: for cyclin D1 (a) initial denaturation at 95° C. for 5 min; (b) 34 cycles of amplification (95° C. for 1 min, 65° C. for 1 min 45 s, and 72° C. for 1 min); and (c) a final extension step of 10 min at 72° C.; for β-actin (a) initial denaturation at 95° C. for 3 min; (b) 40 cycles of amplification (95° C. for 30 s, 58° C. for 20 s, and 72° C. for 45 s); and (c) a final extension step of 10 min at 72° C.

[9] = MCF7, 24 h, 5% FBS, MTT, FIG. 8D, read-out: IC50 in inhibiting MCF-7 cell proliferation
[10] = MCF7, cell viability data, read-out: IC50 for MTT

| SMILES | potency in ablating cyclin D1 relative to Δ2-TG [1] | concentration at which cyclin D1 levels are reduced [1] [µM] | IC50 ([1]; western blot data, read-out: IC50 for WB) [nM] | IC50 [2, 9] [µM] | IC50 [2, 10] [µM] | PPARγ activation [3] | minimum concentration required for the complete ablation of cyclin D1 [1] [µM] | effect on ERα expression [4] | time of complete ablation of cyclin D1 ([1]; 40 μM TG, 30 μM Δ2-TG) [h] | expression level of cyclin D2 and CDK4 [5] | expression level of the other cyclins and CDKs (D3, A, B, E, CDK2) [5] | extent of ubiquitination of cyclin D1 [6] | GSK-3β phosphorylation level [7] | mRNA level of cyclin D1 [8] |
| --- | --- | --- | --- | --- | --- | --- | --- | --- | --- | --- | --- | --- | --- | --- |
| C=CCOc1c(C)c(C)c2c(c1C)CCC(C)(COc1ccc(/C=C3\SC(=O)NC3=O)cc1)O2 (stereo not shown) [TG-6, 5-[4-(6-allyoxy-2,5,7,8-tetramethyl-chroman-2-yl-methoxy)-benzylidene]-2,4-thiazolidinedione] | an-order-of-magnitude higher | ≥ 2.5 | 3000 | 8 | 9 | devoid of activity |  |  |  |  |  |  |  |  |
| CC1(COc2ccc(/C=C3\SC(=O)NC3=O)cc2)CCCCC1 [Δ2-CG, 5-[4-(1-methyl-cyclohexylmethoxy)-benzylidene]-thiazolidine-2,4-dione] |  |  |  |  | 70 | inactive | 30 | able to reduce |  |  |  |  |  |  |
| Cc1c(C)c2c(c(C)c1O)CCC(C)(COc1ccc(/C=C3\SC(=O)NC3=O)cc1)O2 (stereo not shown) [Δ2-TG, 5-[4-(6-hydroxy-2,5,7,8-tetramethyl-chroman-2-yl-methoxy)-benzylidene]-2,4-thiazolidinedione] |  | ≥ 20 |  | 55 | 57 | inactive | 30 | able to reduce | 24 | slight decrease | no appreciable effect | increased | remained unaltered | remained unaltered |
